Measurements from US12344603B2 (Genentech, Inc., priority 2020, dated 2025).
Where a name gives a salt, the structure may show the parent alone.

Target: IRE1α (Homo sapiens (Human), UniProt O75460, D688N)
Assay: IRE1α TR-FRET competition binding assay (IRE1α HTRF)
Details: TR-FRET competition binding to kinase domain of IRE1α
Outline: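 Competition of compounds against an Alexa fluor 647 ATP-site probe (2 nM final) for the His-tagged kinase domain (0.25 nM final), detected via 2 nM Eu anti-His antibody by TR-FRET, 665 and 615 nm emission. Protein–antibody premix 1 h, 4° C; reaction 1 h, room temperature, pH 7.5 HEPES buffer.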

Sequence of IRE1α (O75460 547-977 D688N): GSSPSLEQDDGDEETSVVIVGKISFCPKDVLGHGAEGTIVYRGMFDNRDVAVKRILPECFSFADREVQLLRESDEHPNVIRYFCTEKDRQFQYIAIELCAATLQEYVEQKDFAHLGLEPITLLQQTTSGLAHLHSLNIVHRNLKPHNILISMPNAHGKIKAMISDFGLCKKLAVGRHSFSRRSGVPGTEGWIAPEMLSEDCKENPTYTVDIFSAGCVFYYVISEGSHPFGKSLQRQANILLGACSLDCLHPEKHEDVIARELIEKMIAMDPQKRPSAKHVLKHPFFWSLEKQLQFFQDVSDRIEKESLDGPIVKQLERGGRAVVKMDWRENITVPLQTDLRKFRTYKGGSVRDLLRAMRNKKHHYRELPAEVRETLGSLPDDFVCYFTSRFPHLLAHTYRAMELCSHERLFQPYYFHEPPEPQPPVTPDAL

IC50 | SMILES
0.13 nM | Cc1ccc(CS(=O)(=O)Nc2c(F)cc(-c3nc4cnc(N[C@@H]5CNC[C@@H](F)C5)nc4n(C(C)C)c3=O)c(F)c2F)cc1 [Compound 170, 1-p-Tolyl-N-(2,3,6-trifluoro-4-(2-(((3S,5S)-5-fluoropiperidin-3-yl)amino)-8-isopropyl-7-oxo-7,8-dihydropteridin-6-yl)phenyl)methanesulfonamide hydrochloride]
0.12 nM | CC(C)n1c(=O)c(-c2cc(F)c(NS(=O)(=O)Cc3ccc(F)cc3)c(F)c2F)nc2cnc(N[C@@H]3CNC[C@@H](F)C3)nc21 [Compound 171, 1-(4-Fluorophenyl)-N-(2,3,6-trifluoro-4-(2-(((3S,5S)-5-fluoropiperidin-3-yl)amino)-8-isopropyl-7-oxo-7,8-dihydropteridin-6-yl)phenyl)methanesulfonamide hydrochloride]
0.26 nM | CC(C)n1c(=O)c(-c2cc(F)c(NS(=O)(=O)Cc3ccc(F)cc3)cc2F)nc2cnc(N[C@H]3CC[C@H](N(C)C)CC3)nc21 [Compound 174, N-(4-(2-(((1r,4r)-4-(Dimethylamino)cyclohexyl)amino)-8-isopropyl-7-oxo-7,8-dihydropteridin-6-yl)-2,5-difluorophenyl)-1-(4-fluorophenyl)methanesulfonamide hydrochloride]
0.14 nM | CC(C)n1c(=O)c(-c2cc(F)c(NS(=O)(=O)Cc3ccc(F)cc3)c(F)c2F)nc2cnc(N[C@H]3CC[C@H](N(C)C)CC3)nc21 [Compound 175, N-(4-(2-(((1r,4r)-4-(Dimethylamino)cyclohexyl)amino)-8-isopropyl-7-oxo-7,8-dihydropteridin-6-yl)-2,3,6-trifluorophenyl)-1-(4-fluorophenyl)methanesulfonamide hydrochloride]
0.14 nM | CC(C)n1c(=O)c(-c2ccc(NS(=O)(=O)Cc3ccc(F)cc3)c(F)c2)nc2cnc(N[C@H]3CC[C@H](N(C)CCF)CC3)nc21 [Compound 176, N-(2-Fluoro-4-(2-(((1r,4r)-4-((2-fluoroethyl)(methyl)amino)cyclohexyl)amino)-8-isopropyl-7-oxo-7,8-dihydropteridin-6-yl)phenyl)-1-(4-fluorophenyl)methanesulfonamide]
0.25 nM | CC(C)n1c(=O)c(-c2ccc(NS(=O)(=O)Cc3ccc(F)cc3)c(F)c2)nc2cnc(N[C@H]3CC[C@H](N(C)C)CC3)nc21 [Compound 184, N-(4-(2-(((1r,4r)-4-(dimethylamino)cyclohexyl)amino)-8-isopropyl-7-oxo-7,8-dihydropteridin-6-yl)-2-fluorophenyl)-1-(4-fluorophenyl)methanesulfonamide]
0.17 nM | CC(C)n1c(=O)c(-c2cc(F)c(NS(=O)(=O)Cc3ccccc3)c(F)c2F)nc2cnc(N[C@@H]3CNC[C@@H](F)C3)nc21 [Compound 185, 1-Phenyl-N-(2,3,6-trifluoro-4-(2-(((3S,5S)-5-fluoropiperidin-3-yl)amino)-8-isopropyl-7-oxo-7,8-dihydropteridin-6-yl)phenyl)methanesulfonamide]
0.49 nM | CC(C)n1c(=O)c(-c2cc(F)c(NS(=O)(=O)CCC(F)(F)F)cc2F)nc2cnc(N[C@H]3CC[C@H](N(C)C)CC3)nc21 [Compound 189, N-(4-(2-(((1r,4r)-4-(dimethylamino)cyclohexyl)amino)-8-isopropyl-7-oxo-7,8-dihydropteridin-6-yl)-2,5-difluorophenyl)-3,3,3-trifluoropropane-1-sulfonamide]

The remaining lines, values behind:

SMILES | IC50
CC(C)n1c(=O)c(-c2ccc(NS(=O)(=O)N3CCCC3)c(F)c2)nc2cnc(N[C@@H]3CNC[C@@H](F)C3)nc21 [Compound 163, N-(2-Fluoro-4-(2-(((3S,5S)-5-fluoropiperidin-3-yl)amino)-8-isopropyl-7-oxo-7,8-dihydropteridin-6-yl)phenyl)pyrrolidine-1-sulfonamide] | 0.97 nM
CC(C)n1c(=O)c(-c2ccc(NS(=O)(=O)N(C)C)c(F)c2)nc2cnc(N[C@@H]3CNC[C@@H](F)C3)nc21 [Compound 164, 6-(4-(Dimethylsulfamoylamino)-3-fluoro-phenyl)-2-(((3S,5S)-5-fluoro-3-piperidyl)amino)-8-isopropyl-7-oxo-pteridine] | 0.43 nM
CCC(F)(F)CS(=O)(=O)Nc1ccc(-c2nc3cnc(N[C@H]4CC[C@H](N(C)C)CC4)nc3n(C(C)C)c2=O)cc1F [Compound 165, N-(4-(2-(((1r,4r)-4-(Dimethylamino)cyclohexyl)amino)-8-isopropyl-7-oxo-7,8-dihydropteridin-6-yl)-2-fluorophenyl)-2,2-difluorobutane-1-sulfonamide hydrochloride] | 0.1 nM
Cc1ccc(CS(=O)(=O)Nc2ccc(-c3nc4cnc(N[C@@H]5CNC[C@@H](F)C5)nc4n(C(C)C)c3=O)cc2F)c(C#N)c1 [Compound 166, 1-(2-Cyano-4-methylphenyl)-N-(2-fluoro-4-(2-(((3S,5S)-5-fluoropiperidin-3-yl)amino)-8-isopropyl-7-oxo-7,8-dihydropteridin-6-yl)phenyl)methanesulfonamide] | 0.09 nM
CC(C)n1c(=O)c(-c2ccc(NS(=O)(=O)c3ccccc3Cl)c(F)c2)nc2cnc(N[C@H]3CC[C@H](N(C)C)CC3)nc21 [Compound 167, 2-Chloro-N-(4-(2-(((1r,4r)-4-(dimethylamino)cyclohexyl)amino)-8-isopropyl-7-oxo-7,8-dihydropteridin-6-yl)-2-fluorophenyl)benzenesulfonamide] | 0.18 nM
CC(C)n1c(=O)c(-c2c(F)cc(NS(=O)(=O)CCC(F)(F)F)cc2F)nc2cnc(N[C@H]3CC[C@H](N(C)C)CC3)nc21 [Compound 169, N-(4-(2-(((1r,4r)-4-(Dimethylamino)cyclohexyl)amino)-8-isopropyl-7-oxo-7,8-dihydropteridin-6-yl)-3,5-difluorophenyl)-3,3,3-trifluoropropane-1-sulfonamide] | 0.69 nM
CC(C)n1c(=O)c(-c2c(F)cc(NS(=O)(=O)CCC(F)(F)F)c(F)c2F)nc2cnc(N[C@H]3CC[C@H](N(C)C)CC3)nc21 [Compound 172, N-(4-(2-(((1r,4r)-4-(Dimethylamino)cyclohexyl)amino)-8-isopropyl-7-oxo-7,8-dihydropteridin-6-yl)-2,3,5-trifluorophenyl)-3,3,3-trifluoropropane-1-sulfonamide hydrochloride] | 0.35 nM
COc1nc(NS(=O)(=O)c2ccccc2Cl)ccc1-c1nc2cnc(N[C@H]3CC[C@H](N(C)C)CC3)nc2n(C(C)C)c1=O [Compound 173, 2-Chloro-N-(5-(2-(((1r,4r)-4-(dimethylamino)cyclohexyl)amino)-8-isopropyl-7-oxo-7,8-dihydropteridin-6-yl)-6-methoxypyridin-2-yl)benzenesulfonamide] | 0.27 nM
CC(C)n1c(=O)c(-c2ccc(NS(=O)(=O)CCC(F)(F)F)c(F)c2)nc2cnc(N[C@H]3CC[C@H](N(C)CCF)CC3)nc21 [Compound 177, 3,3,3-Trifluoro-N-(2-fluoro-4-(2-(((1r,4r)-4-((2-fluoroethyl)(methyl)amino)cyclohexyl)amino)-8-isopropyl-7-oxo-7,8-dihydropteridin-6-yl)phenyl)propane-1-sulfonamide] | 0.24 nM
CC(C)n1c(=O)c(-c2ccc(NS(=O)(=O)c3ccccc3Cl)nc2)nc2cnc(N[C@H]3CC[C@H](N(C)C)CC3)nc21 [Compound 178, 2-Chloro-N-(5-(2-(((1r,4r)-4-(dimethylamino)cyclohexyl)amino)-8-isopropyl-7-oxo-7,8-dihydropteridin-6-yl)pyridin-2-yl)benzenesulfonamide] | 0.26 nM
CC(C)n1c(=O)c(-c2ccc(NS(=O)(=O)CC3CC(F)(F)C3)c(F)c2)nc2cnc(N[C@H]3CC[C@H](N(C)CCF)CC3)nc21 [Compound 180, 1-(3,3-Difluorocyclobutyl)-N-(2-fluoro-4-(2-(((1r,4r)-4-((2-fluoroethyl)(methyl)amino)cyclohexyl)amino)-8-isopropyl-7-oxo-7,8-dihydropteridin-6-yl)phenyl)methanesulfonamide] | 0.29 nM
CC(C)n1c(=O)c(-c2ccc(NS(=O)(=O)CCN3CC(F)(F)C3)c(F)c2)nc2cnc(N[C@H]3CC[C@H](N(C)C)CC3)nc21 [Compound 182, 2-(3,3-Difluoroazetidin-1-yl)-N-(4-(2-(((1r,4r)-4-(dimethylamino)cyclohexyl)amino)-8-isopropyl-7-oxo-7,8-dihydropteridin-6-yl)-2-fluorophenyl)ethane-1-sulfonamide] | 0.87 nM
CC(C)n1c(=O)c(-c2ccc(NS(=O)(=O)Cc3ccccc3)c(F)c2)nc2cnc(N[C@H]3CC[C@H](N(C)CCF)CC3)nc21 [Compound 183, N-(2-fluoro-4-(2-(((1r,4r)-4-((2-fluoroethyl)(methyl)amino)cyclohexyl)amino)-8-isopropyl-7-oxo-7,8-dihydropteridin-6-yl)phenyl)-1-phenylmethanesulfonamide] | 0.12 nM
Cc1cc(NS(=O)(=O)CCC(F)(F)F)ncc1-c1nc2cnc(N[C@H]3CC[C@H](N(C)C)CC3)nc2n(C(C)C)c1=O [Compound 186, N-(5-(2-(((1r,4r)-4-(Dimethylamino)cyclohexyl)amino)-8-isopropyl-7-oxo-7,8-dihydropteridin-6-yl)-4-methylpyridin-2-yl)-3,3,3-trifluoropropane-1-sulfonamide] | 0.95 nM
CC(C)n1c(=O)c(-c2ccc(NS(=O)(=O)CCC(F)(F)F)nc2)nc2cnc(N[C@H]3CC[C@H](N(C)CCF)CC3)nc21 [Compound 187, 3,3,3-Trifluoro-N-(5-(2-(((1r,4r)-4-((2-fluoroethyl)(methyl)amino)cyclohexyl)amino)-8-isopropyl-7-oxo-7,8-dihydropteridin-6-yl)pyridin-2-yl)propane-1-sulfonamide] | 0.31 nM
CC(C)n1c(=O)c(-c2ccc(NS(=O)(=O)c3ccccc3Cl)nc2)nc2cnc(N[C@H]3CC[C@H](N(C)CCF)CC3)nc21 [Compound 188, 2-Chloro-N-(5-(2-(((1r,4r)-4-((2-fluoroethyl)(methyl)amino)cyclohexyl)amino)-8-isopropyl-7-oxo-7,8-dihydropteridin-6-yl)pyridin-2-yl)benzenesulfonamide hydrochloride] | 0.27 nM
